A word on the EC50: it is the concentration at which the effect is half-maximal. Low readings indicate greater potency, high ones weaker potency. As usually defined, the bioavailability is the share of a dose that reaches the circulation, judged against a reference dose that is usually intravenous.

Data set [1] concerns the target S1P1 receptor (Homo sapiens, UniProt P21453). The data set is described as follows: S1P1 receptor agonistic activity (PathHunter cell strain, chemiluminescent signal detection). Particulars: PathHunter cells, agonist mode, 37° C. 90-180 minutes. Format: cell-based. As for the experimental part:
Test Method: […] Cell Processing i) Thaw the PathHunter cell strain according to the standard procedures. ii) Seed the cell in the 20 μL 384-microwell plate and incubate at 37° C. for an appropriate period. 2. Agonist i) For agonist testing, cells were incubated with the sample to be test to initiate a reaction; ii) The stock solution to be tested has been diluted 5 folds to be a buffer solution; iii) Inject the 5-fold diluted solution (5 μL) into the cells and incubate at 37° C. for 90-180 minutes. […] 3. Signal Detection i) Add 12.5 μL or 15 μL PathHunter detection reagent (50 vol. %) in one portion. Then, incubate at room temperature for 1 hour and generate the detection signal; ii) Use PerkinElmer Evision™ instrument to read the microwell plate to proceed with chemiluminescent signal detection. 4. Data Analysis i) Use CBIS data analysis system for the compound activity analysis. ii) Calculation formula: […]

Data set [2] is described as follows: Evaluation of compound pharmacokinetics in SD rats (intravenous injection and oral administration). Format: in vivo. Particulars: male, Sprague Dawley, rat, plasma, 2 mg/kg, 2 mpk; for clearance: read-out: Clearance rate; for AUC: read-out: Drug concentration integral: AUC; for half-life: read-out: Half-life period: T1/2 (converted); for bioavailability: oral, read-out: Fraction of bioavailability: F. As for the experimental part:
Aim of the experiments: To test pharmacokinetics of the compounds in SD rats. Experimental Materials: Sprague Dawley rats (male, 200-300 g, 7-9 weeks old, Shanghai Slack) Experimental Procedure: The rodent pharmacokinetic characteristics of the compounds after intravenous injection and oral administration were tested by the standard protocol. In the experiments, the transparent solution was prepared with the compounds to be test. The rats were administered single intravenous injection and oral administration. The solvent for intravenous injection and oral administration was aqueous hydroxypropyl β-cyclodextrin solution or normal saline solution with a certain concentration. Collect the blood samples within 24 hours and centrifuge at 3000 G for 15 minutes. Separate the supernatant to obtain the plasma samples. A volume of acetonitrile solution containing internal standard was added 4 times as the sample to precipitate the protein. The supernatant was obtained after centrifuge. An equal volume of water was added and then centrifuge again to collect the supernatant. The LC-MS/MS method was used to quantitatively analyze the blood drug concentration and the pharmacokinetic parameters such as peak concentration, peak time, clearance rate, half-life period, area under the curve of the drug concentration, and fraction of bioavailability, etc. were calculated.

S1P1 receptor, sequence (P21453 whole entry): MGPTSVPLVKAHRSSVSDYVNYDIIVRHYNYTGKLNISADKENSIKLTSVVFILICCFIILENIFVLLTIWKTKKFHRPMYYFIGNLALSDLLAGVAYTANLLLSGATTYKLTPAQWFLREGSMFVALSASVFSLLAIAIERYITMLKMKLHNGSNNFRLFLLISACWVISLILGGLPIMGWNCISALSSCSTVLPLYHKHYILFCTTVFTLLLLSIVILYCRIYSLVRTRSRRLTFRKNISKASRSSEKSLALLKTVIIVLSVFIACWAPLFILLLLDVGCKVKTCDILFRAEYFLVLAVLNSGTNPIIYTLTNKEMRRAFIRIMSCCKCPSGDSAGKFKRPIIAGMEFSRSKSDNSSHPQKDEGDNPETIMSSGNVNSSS

With `CC(C)Oc1ccc(-c2nc(-c3cccc4c3CC3CC(=O)N(CCO)C43)no2)cc1OC(F)F` (stereo not shown) [Example 40], the concentration for a half-maximal effect (EC50) in data set [1] is below 10 nM. In data set [2], the clearance was determined as 14.1 mL/min/kg, the AUC is 0.444 µM·h, the half-life is 10.7 h and the bioavailability amounted to 82.3%.

Turning to `CC(C)Oc1ccc(-c2nc(-c3cccc4c3C[C@@H]3CC(=O)N([C@H](C)CO)C43)no2)cc1C#N` (stereo partly shown) [Example 56], the EC50 in data set [1] is below 10 nM. Further, in data set [2], the clearance turned out to be 14.6 mL/min/kg, the AUC was found to be 3.32 µM·h, the half-life is 1.63 h and the bioavailability was 66.7%.

The record behind these values is US20210300908A1, “S1P1 AGONIST AND APPLICATION THEREOF” (SHIJIAZHUANG SAGACITY SRUG SEVELOPMENT CO., LTD., priority 2016, published 2021).
